Key:
Assay in all cases: relative viability (nuclei count vs DMSO), 5 days (fraction); higher = more cells survive
[1] = compound: CC1=C(C(=NN1)C)CC2=C(C3=C(S2)N(C(=O)N(C3=O)C)CC(C)C)C(=O)N4C[C@@H](CO4)O + Nc1ncn([C@H]2C[C@H](O)[C@@H](CO)O2)c(=O)n1 [Decitabine] (partner 2 µM)
Outline: (§1)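 Values are medians from duplicate plates. Each reflects relative viability, defined as the nuclei count of treated wells over that of vehicle wells. Lung cancer cell lines in 1536-well plates were pin-tool dosed one day after seeding with one drug alone or with a fixed anchor-drug dose plus five library-drug doses (not always all listed) in √10 steps, then fixed, stained and imaged at 4× after 5 days.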

[2] = compound: CC1=C(C(=NN1)C)CC2=C(C3=C(S2)N(C(=O)N(C3=O)C)CC(C)C)C(=O)N4C[C@@H](CO4)O + N=C(N)NC(=N)NCCc1ccccc1 [Phenformin] (partner 250 µM)
Outline: as §1

IDH-C35 + Navitoclax = compound: Cc1ccccc1C(C(=O)NC1CCCCC1)N(C(=O)Cn1ccnc1C)c1cccc(F)c1 [IDH-C35] + CC1(C)CCC(c2ccc(Cl)cc2)=C(CN2CCN(c3ccc(C(=O)NS(=O)(=O)c4ccc(N[C@H](CCN5CCOCC5)CSc5ccccc5)c(S(=O)(=O)C(F)(F)F)c4)cc3)CC2)C1 [Navitoclax] (partner 0.5 µM)
Outline: as §1

[3] = compound: CC1=C(C(=NN1)C)CC2=C(C3=C(S2)N(C(=O)N(C3=O)C)CC(C)C)C(=O)N4C[C@@H](CO4)O + CC(=O)Nc1cccc(-n2c(=O)n(C3CC3)c(=O)c3c(Nc4ccc(I)cc4F)n(C)c(=O)c(C)c32)c1 [Trametinib] (partner 0.02 µM)
Outline: as §1

For ABC-1, the relative viability ([1]; first compound 0.0025 µM) was 0.988, the relative viability ([1]; first compound 0.007906 µM) was 0.899 and the relative viability ([1]; first compound 0.07906 µM) was 0.889. The relative viability ([1]; first compound 0.25 µM) was 0.779, the relative viability ([2]; first compound 0.0025 µM) was 0.18 and the relative viability ([2]; first compound 0.007906 µM) was 0.174. The relative viability ([2]; first compound 0.025 µM) was 0.173, the relative viability ([2]; first compound 0.07906 µM) was 0.186 and the relative viability ([2]; first compound 0.25 µM) was 0.214.
Cell Line NCI-H1299 has a relative viability (IDH-C35 + Navitoclax; first compound 0.08 µM) of 1.02, a relative viability (IDH-C35 + Navitoclax; first compound 0.253 µM) of 1.08 and a relative viability (IDH-C35 + Navitoclax; first compound 0.8 µM) of 1.02. It also gave a relative viability (IDH-C35 + Navitoclax; first compound 2.53 µM) of 1.05 and a relative viability (IDH-C35 + Navitoclax; first compound 8 µM) of 1.03.
Cell Line EBC-1 has a relative viability (IDH-C35 + Navitoclax; first compound 0.08 µM) of 0.364, a relative viability (IDH-C35 + Navitoclax; first compound 0.253 µM) of 0.503 and a relative viability (IDH-C35 + Navitoclax; first compound 0.8 µM) of 0.52. For the same cell line, the relative viability (IDH-C35 + Navitoclax; first compound 2.53 µM) was 0.359 and the relative viability (IDH-C35 + Navitoclax; first compound 8 µM) was 0.203.
NCI-H2342 showed a relative viability ([1]; first compound 0.0025 µM) of 0.74, a relative viability ([1]; first compound 0.007906 µM) of 0.784 and a relative viability ([1]; first compound 0.025 µM) of 0.81. It also gave a relative viability ([1]; first compound 0.07906 µM) of 0.693, a relative viability ([1]; first compound 0.25 µM) of 0.799 and a relative viability ([2]; first compound 0.0025 µM) of 0.493. For the same cell line, the relative viability ([2]; first compound 0.007906 µM) was 0.532, the relative viability ([2]; first compound 0.025 µM) was 0.398 and the relative viability ([2]; first compound 0.07906 µM) was 0.384. The relative viability ([2]; first compound 0.25 µM) was 0.401, the relative viability ([3]; first compound 0.0025 µM) was 0.932 and the relative viability ([3]; first compound 0.007906 µM) was 0.751. The relative viability ([3]; first compound 0.025 µM) was 0.724, the relative viability ([3]; first compound 0.07906 µM) was 0.854 and the relative viability ([3]; first compound 0.25 µM) was 0.976.
Work on NCI-H650 yielded a relative viability ([1]; first compound 0.0025 µM) of 0.321, a relative viability ([1]; first compound 0.007906 µM) of 0.39 and a relative viability ([1]; first compound 0.025 µM) of 0.336. For the same cell line, the relative viability ([1]; first compound 0.07906 µM) was 0.329, the relative viability ([1]; first compound 0.25 µM) was 0.361 and the relative viability ([2]; first compound 0.0025 µM) was 0.499. The relative viability ([2]; first compound 0.007906 µM) was 0.431, the relative viability ([2]; first compound 0.025 µM) was 0.4 and the relative viability ([2]; first compound 0.07906 µM) was 0.458. For the same cell line, the relative viability ([2]; first compound 0.25 µM) was 0.472, the relative viability ([3]; first compound 0.0025 µM) was 1.09 and the relative viability ([3]; first compound 0.007906 µM) was 1.01. The relative viability ([3]; first compound 0.025 µM) was 1.15, the relative viability ([3]; first compound 0.07906 µM) was 0.982 and the relative viability ([3]; first compound 0.25 µM) was 1.04.
For A549, the relative viability ([1]; first compound 0.0025 µM) was 0.237, the relative viability ([1]; first compound 0.007906 µM) was 0.284 and the relative viability ([1]; first compound 0.025 µM) was 0.252. For the same cell line, the relative viability ([1]; first compound 0.07906 µM) was 0.232, the relative viability ([1]; first compound 0.25 µM) was 0.343 and the relative viability ([2]; first compound 0.0025 µM) was 0.116. It also gave a relative viability ([2]; first compound 0.007906 µM) of 0.0979, a relative viability ([2]; first compound 0.025 µM) of 0.151 and a relative viability ([2]; first compound 0.07906 µM) of 0.161. The relative viability ([2]; first compound 0.25 µM) was 0.168, the relative viability (IDH-C35 + Navitoclax; first compound 0.08 µM) was 1.19 and the relative viability (IDH-C35 + Navitoclax; first compound 0.253 µM) was 1.16. For the same cell line, the relative viability (IDH-C35 + Navitoclax; first compound 0.8 µM) was 1.17, the relative viability (IDH-C35 + Navitoclax; first compound 2.53 µM) was 1.22 and the relative viability (IDH-C35 + Navitoclax; first compound 8 µM) was 1.15.
Cell Line NCI-H358 has a relative viability ([1]; first compound 0.0025 µM) of 0.198, a relative viability ([1]; first compound 0.007906 µM) of 0.237 and a relative viability ([1]; first compound 0.025 µM) of 0.208. For the same cell line, the relative viability ([1]; first compound 0.07906 µM) was 0.204, the relative viability ([1]; first compound 0.25 µM) was 0.217 and the relative viability ([2]; first compound 0.0025 µM) was 0.35. The relative viability ([2]; first compound 0.007906 µM) was 0.395, the relative viability ([2]; first compound 0.025 µM) was 0.337 and the relative viability ([2]; first compound 0.07906 µM) was 0.311. The relative viability ([2]; first compound 0.25 µM) was 0.36, the relative viability ([3]; first compound 0.0025 µM) was 0.146 and the relative viability ([3]; first compound 0.007906 µM) was 0.125. The relative viability ([3]; first compound 0.025 µM) was 0.146, the relative viability ([3]; first compound 0.07906 µM) was 0.125 and the relative viability ([3]; first compound 0.25 µM) was 0.129.
For NCI-H1563, the relative viability ([2]; first compound 0.0025 µM) was 0.667, the relative viability ([2]; first compound 0.007906 µM) was 0.666 and the relative viability ([2]; first compound 0.025 µM) was 0.729. It also gave a relative viability ([2]; first compound 0.07906 µM) of 0.711 and a relative viability ([2]; first compound 0.25 µM) of 0.667.
With SW 900 the relative viability ([1]; first compound 0.0025 µM) was 0.449, the relative viability ([1]; first compound 0.007906 µM) was 0.405 and the relative viability ([1]; first compound 0.025 µM) was 0.547. The relative viability ([1]; first compound 0.07906 µM) was 0.469, the relative viability ([1]; first compound 0.25 µM) was 0.412 and the relative viability ([2]; first compound 0.0025 µM) was 0.735. It also gave a relative viability ([2]; first compound 0.007906 µM) of 0.675, a relative viability ([2]; first compound 0.025 µM) of 0.535 and a relative viability ([2]; first compound 0.07906 µM) of 0.779. It also gave a relative viability ([2]; first compound 0.25 µM) of 0.589, a relative viability ([3]; first compound 0.0025 µM) of 0.666 and a relative viability ([3]; first compound 0.007906 µM) of 0.951. The relative viability ([3]; first compound 0.025 µM) was 0.787, the relative viability ([3]; first compound 0.07906 µM) was 0.74 and the relative viability ([3]; first compound 0.25 µM) was 0.8.
For IA-LM, the relative viability (IDH-C35 + Navitoclax; first compound 0.08 µM) was 0.711, the relative viability (IDH-C35 + Navitoclax; first compound 0.253 µM) was 0.838 and the relative viability (IDH-C35 + Navitoclax; first compound 0.8 µM) was 0.798. It also gave a relative viability (IDH-C35 + Navitoclax; first compound 2.53 µM) of 0.742 and a relative viability (IDH-C35 + Navitoclax; first compound 8 µM) of 0.707.
In the case of NCI-H1703, the relative viability (IDH-C35 + Navitoclax; first compound 0.08 µM) is reported as 1.05, the relative viability (IDH-C35 + Navitoclax; first compound 0.253 µM) is reported as 1.29 and the relative viability (IDH-C35 + Navitoclax; first compound 0.8 µM) is reported as 1.49. For the same cell line, the relative viability (IDH-C35 + Navitoclax; first compound 2.53 µM) was 1.11 and the relative viability (IDH-C35 + Navitoclax; first compound 8 µM) was 0.897.
In the case of LCLC-103H, the relative viability ([1]; first compound 0.0025 µM) is reported as 0.753, the relative viability ([1]; first compound 0.007906 µM) is reported as 0.746 and the relative viability ([1]; first compound 0.025 µM) is reported as 0.766. The relative viability ([1]; first compound 0.07906 µM) was 0.644, the relative viability ([1]; first compound 0.25 µM) was 0.701 and the relative viability ([2]; first compound 0.0025 µM) was 0.329. It also gave a relative viability ([2]; first compound 0.007906 µM) of 0.367, a relative viability ([2]; first compound 0.025 µM) of 0.393 and a relative viability ([2]; first compound 0.07906 µM) of 0.341. It also gave a relative viability ([2]; first compound 0.25 µM) of 0.317, a relative viability ([3]; first compound 0.0025 µM) of 0.681 and a relative viability ([3]; first compound 0.007906 µM) of 0.689. The relative viability ([3]; first compound 0.025 µM) was 0.664, the relative viability ([3]; first compound 0.07906 µM) was 0.688 and the relative viability ([3]; first compound 0.25 µM) was 0.661.
In the case of NCI-H1648, the relative viability ([1]; first compound 0.0025 µM) is reported as 0.582, the relative viability ([1]; first compound 0.007906 µM) is reported as 0.529 and the relative viability ([1]; first compound 0.025 µM) is reported as 0.5. The relative viability ([1]; first compound 0.07906 µM) was 0.302, the relative viability ([1]; first compound 0.25 µM) was 0.461 and the relative viability ([3]; first compound 0.0025 µM) was 0.593. For the same cell line, the relative viability ([3]; first compound 0.007906 µM) was 0.431, the relative viability ([3]; first compound 0.025 µM) was 0.635 and the relative viability ([3]; first compound 0.07906 µM) was 0.356. The relative viability ([3]; first compound 0.25 µM) was 0.52.
